Data published in PMC5429769, “Rational development of Stafib-2: a selective, nanomolar inhibitor of the transcription factor STAT5b” (Scientific Reports, 2017).

Key:
STAT5a-GFP = assay: STAT5a Tyr694 phosphorylation in STAT5a-GFP-transfected K562 cells (Western blot); type: cell-based, human; conditions: 4 h, result in words
STAT1 = target: T1, STAT1 (Homo sapiens, UniProt P42224); assay: Fluorescence polarization assay, STAT1; type: binding
T1 sequence (P42224 1-750): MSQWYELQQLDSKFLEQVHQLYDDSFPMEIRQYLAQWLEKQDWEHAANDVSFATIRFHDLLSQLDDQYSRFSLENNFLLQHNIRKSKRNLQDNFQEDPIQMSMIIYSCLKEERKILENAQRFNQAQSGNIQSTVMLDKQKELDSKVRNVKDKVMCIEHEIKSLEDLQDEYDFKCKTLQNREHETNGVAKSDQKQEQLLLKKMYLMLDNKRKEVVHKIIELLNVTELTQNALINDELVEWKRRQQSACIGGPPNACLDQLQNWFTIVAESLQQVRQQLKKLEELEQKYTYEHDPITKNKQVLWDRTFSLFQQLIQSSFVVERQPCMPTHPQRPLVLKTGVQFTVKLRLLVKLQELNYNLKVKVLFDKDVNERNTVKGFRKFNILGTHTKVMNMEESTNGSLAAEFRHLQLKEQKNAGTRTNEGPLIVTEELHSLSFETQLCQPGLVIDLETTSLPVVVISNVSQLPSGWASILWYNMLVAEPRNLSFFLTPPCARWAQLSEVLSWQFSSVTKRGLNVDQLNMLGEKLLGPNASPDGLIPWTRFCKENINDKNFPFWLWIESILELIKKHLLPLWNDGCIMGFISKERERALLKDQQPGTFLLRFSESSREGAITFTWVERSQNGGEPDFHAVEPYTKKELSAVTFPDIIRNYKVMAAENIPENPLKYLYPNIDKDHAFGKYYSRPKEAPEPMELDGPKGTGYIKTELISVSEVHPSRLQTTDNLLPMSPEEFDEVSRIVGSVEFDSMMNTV

STAT5b-GFP = target: T2, STAT5b-GFP (Homo sapiens, UniProt P51692); assay: STAT5b Tyr699 phosphorylation in STAT5b-GFP-transfected K562 cells (Western blot); type: cell-based
T2 sequence (P51692 1-787): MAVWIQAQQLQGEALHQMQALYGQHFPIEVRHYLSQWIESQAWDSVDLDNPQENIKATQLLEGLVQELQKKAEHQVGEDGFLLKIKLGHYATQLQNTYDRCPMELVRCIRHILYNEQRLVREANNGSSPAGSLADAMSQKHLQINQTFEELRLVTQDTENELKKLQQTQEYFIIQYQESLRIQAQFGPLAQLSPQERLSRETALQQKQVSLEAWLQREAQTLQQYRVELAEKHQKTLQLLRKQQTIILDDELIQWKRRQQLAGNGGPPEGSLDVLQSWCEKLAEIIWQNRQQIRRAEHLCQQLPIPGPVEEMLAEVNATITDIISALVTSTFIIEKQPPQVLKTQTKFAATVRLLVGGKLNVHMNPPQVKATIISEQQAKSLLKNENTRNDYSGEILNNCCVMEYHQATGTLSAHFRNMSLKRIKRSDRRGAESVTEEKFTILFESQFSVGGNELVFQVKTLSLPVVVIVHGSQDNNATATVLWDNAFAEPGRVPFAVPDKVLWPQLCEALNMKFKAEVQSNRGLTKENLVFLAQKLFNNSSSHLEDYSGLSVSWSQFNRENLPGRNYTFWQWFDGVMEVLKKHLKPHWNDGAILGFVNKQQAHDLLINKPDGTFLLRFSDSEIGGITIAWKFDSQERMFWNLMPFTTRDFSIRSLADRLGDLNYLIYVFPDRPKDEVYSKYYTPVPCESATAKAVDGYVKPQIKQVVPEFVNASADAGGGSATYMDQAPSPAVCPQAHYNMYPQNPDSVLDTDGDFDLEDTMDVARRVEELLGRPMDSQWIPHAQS

STAT6 = target: T3, STAT6 (Homo sapiens, UniProt P42226); assay: Fluorescence polarization assay, STAT6; type: binding
T3 sequence (P42226 1-847): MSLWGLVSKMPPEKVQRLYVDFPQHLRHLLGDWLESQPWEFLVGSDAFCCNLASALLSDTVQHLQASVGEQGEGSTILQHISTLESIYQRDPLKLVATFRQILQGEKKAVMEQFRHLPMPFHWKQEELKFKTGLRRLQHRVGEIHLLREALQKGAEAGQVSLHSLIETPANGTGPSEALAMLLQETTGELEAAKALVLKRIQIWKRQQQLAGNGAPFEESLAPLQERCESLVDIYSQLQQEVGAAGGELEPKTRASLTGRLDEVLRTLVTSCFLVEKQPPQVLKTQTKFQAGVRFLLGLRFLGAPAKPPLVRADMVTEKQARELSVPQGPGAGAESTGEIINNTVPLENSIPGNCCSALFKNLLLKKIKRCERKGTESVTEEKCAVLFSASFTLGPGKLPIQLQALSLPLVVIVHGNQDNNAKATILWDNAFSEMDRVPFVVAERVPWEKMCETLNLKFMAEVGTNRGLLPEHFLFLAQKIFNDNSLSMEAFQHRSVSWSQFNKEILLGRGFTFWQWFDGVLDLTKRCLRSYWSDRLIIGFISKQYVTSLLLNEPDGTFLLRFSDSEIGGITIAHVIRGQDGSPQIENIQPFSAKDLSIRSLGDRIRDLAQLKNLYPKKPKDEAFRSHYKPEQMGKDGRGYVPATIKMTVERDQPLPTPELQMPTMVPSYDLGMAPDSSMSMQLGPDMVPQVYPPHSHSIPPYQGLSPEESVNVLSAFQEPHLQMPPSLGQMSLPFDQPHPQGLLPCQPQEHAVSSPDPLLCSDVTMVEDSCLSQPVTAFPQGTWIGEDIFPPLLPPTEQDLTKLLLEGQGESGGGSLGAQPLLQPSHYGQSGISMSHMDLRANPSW

[1] = converted from IC50 using the published equation

`O=C(COc1ccc(C(=O)Nc2ccc(Oc3ccccc3)cc2)cc1)NCc1ccc(OP(=O)(O)O)c(OP(=O)(O)O)c1` [compound 4, 4-((2-(4-((4-phenoxyphenyl)carbamoyl)phenoxy)acetamido)methyl)-1,2-phenylene bis(dihydrogen phosphate)] was tested, and the “inhibition of STAT5a phosphorylation” value (STAT5a-GFP) was “did not show significant activity”, the Ki (STAT1; [1]) was 22.8 ± 1 µM and the IC50 (STAT1; fluorescence polarization) was 46 ± 2 µM. The “inhibition of STAT5b phosphorylation” value (STAT5b-GFP) was “did not show significant activity”, the Ki (STAT6; [1]) was 11.7 ± 1.2 µM and the IC50 (STAT6; fluorescence polarization) was 23.7 ± 2.5 µM.
